Our source for the TGI and GI50 values is PubChem BioAssay (NCI).

Several values for one entry are separate records, joined by “and”; a condition that tells them apart may be missing. Equal entries are not always repeated.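 Step 1: Grow cells in 96-well plates. Step 2: Expose to compound for 48 hours at 5 concentrations. Step 3: Interpolate endpoints linearly; if unreached, use highest concentration. GI50: concentration for 50% inhibition of growth. TGI: total growth inhibition.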

Among the test systems are MOLT-4 leukemia; HOP-92 NSCLC; DMS 114 small cell lung; DMS 273 small cell lung; COLO 205 colon; SK-MEL-5 melanoma; DLD-1 colon; 786-0 renal; DU-145 prostate; PC-3 prostate; KM12 colon; MDA-MB-231 breast.
Common to all, as to assay: NCI anticancer screen, dose series, 48 h

As for `COc1ccc(C2C(C(=O)O)=C(COC(C)=O)Oc3cc4c(cc32)OCO4)cc1` (stereo not drawn), the TGI in the test on MOLT-4 leukemia, in the test on HOP-92 NSCLC, in the test on DMS 114 small cell lung, in the test with DMS 273 small cell lung, in the test on COLO 205 colon and in the test with SK-MEL-5 melanoma was more than 100 µM each time. The compound also returned a TGI with DLD-1 colon of more than 100 µM.

Consider `Cc1cc(=O)c2c(O)c3c(O)cc(O)c4c5c(O)cc(O)c6c(O)c7c(=O)cc(C)c8c1c2c(c34)c(c65)c78`, for which the TGI in the test on 786-0 renal was more than 100 µM; in the test with DU-145 prostate, more than 100 µM; with PC-3 prostate, more than 100 µM; in the test with MOLT-4 leukemia, > 100 µM and 24.2 µM; in the test on HOP-92 NSCLC it was > 100 µM and 47.4 µM; with KM12 colon it was more than 100 µM. Further, the TGI is more than 100 µM in the test with DMS 273 small cell lung; more than 100 µM in the test with COLO 205 colon; more than 100 µM in the test with SK-MEL-5 melanoma; 47.5 µM with DLD-1 colon; more than 100 µM in the test with MDA-MB-231 breast. In addition, the GI50 in the test with HOP-92 NSCLC is 36.7 µM and 15.1 µM; in the test on COLO 205 colon, more than 100 µM.

Turning to `CCN(CC)C(=O)c1c(N2CCOCC2)cc(N(CC)CC)oc1=O`, the TGI with 786-0 renal, with MOLT-4 leukemia, in the test on HOP-92 NSCLC, with KM12 colon, in the test with DMS 114 small cell lung and with DMS 273 small cell lung was more than 100 µM in each case. For the same compound, the TGI in the test with COLO 205 colon and with DLD-1 colon was more than 100 µM in each case.

For `C[C@]12CCC(=O)C=C1CC[C@@H]1[C@@H]2C(=O)C[C@@]2(C)[C@H]1CC[C@]2(O)C(=O)CO`, the TGI in the test on 786-0 renal, in the test on MOLT-4 leukemia, in the test on HOP-92 NSCLC, in the test on KM12 colon, with DMS 114 small cell lung and in the test with DMS 273 small cell lung was more than 100 µM in each case. The TGI in the test on COLO 205 colon, in the test with SK-MEL-5 melanoma and with DLD-1 colon was more than 100 µM throughout.

`CC(=O)c1ccc(NC(=O)/C(=N\NC(N)=O)C(C#N)CC(C)(C)C=O)cc1` (stereo not drawn): the TGI in the test on MOLT-4 leukemia, with HOP-92 NSCLC, in the test on KM12 colon, in the test with DMS 114 small cell lung, in the test on DMS 273 small cell lung and in the test on COLO 205 colon was more than 100 µM each time. Further, the TGI in the test on SK-MEL-5 melanoma and with DLD-1 colon was more than 100 µM each time.

`COCC(=O)[C@]1(O)Cc2c(O)c3c(c(O)c2[C@@H](OC2CC(N)C(O)C(C)O2)C1)C(=O)c1c(OC)cccc1C3=O` (stereo partly drawn): the TGI in the test on 786-0 renal turned out to be 12.2 µM; in the test with DU-145 prostate it was 0.974 µM; in the test with PC-3 prostate, 1.48 µM; in the test with MOLT-4 leukemia, 0.054 µM; in the test with HOP-92 NSCLC, 1.12 µM; with KM12 colon it was 0.357 µM. In addition, the TGI in the test on DMS 114 small cell lung turned out to be 0.477 µM; with DMS 273 small cell lung it was 0.603 µM; in the test with COLO 205 colon, 1.63 µM; in the test on SK-MEL-5 melanoma, 0.228 µM; in the test with DLD-1 colon, 5.15 µM; in the test with MDA-MB-231 breast, 2.97 µM.

On to `Cc1ccc(NC(=O)c2cccc([N+](=O)[O-])c2O)c(C)c1`, for which the TGI in the test on MOLT-4 leukemia, in the test on KM12 colon, with DMS 114 small cell lung, with COLO 205 colon and in the test with DLD-1 colon was more than 100 µM each time.

For the compound `COc1cc2c3c(cc(Cl)nc3c1OC)C(O)(CC(C)=O)C(=O)N2` (stereo not drawn), the TGI in the test on 786-0 renal is 30.9 µM; with DU-145 prostate, more than 53.6 µM; in the test with PC-3 prostate it was more than 56.4 µM; in the test with MOLT-4 leukemia, more than 34.5 µM; with HOP-92 NSCLC, 34.3 µM; in the test on KM12 colon, more than 61.6 µM. The TGI was more than 100 µM in the test with COLO 205 colon, more than 56 µM with SK-MEL-5 melanoma and 33 µM in the test with MDA-MB-231 breast.

Take `[N-]=[N+]=C1CNC(=O)NC1=O`: the TGI in the test on 786-0 renal, in the test with DU-145 prostate, in the test with PC-3 prostate, in the test with MOLT-4 leukemia, in the test on HOP-92 NSCLC and with KM12 colon was more than 100 µM in each case. Moreover, the TGI in the test with COLO 205 colon, in the test with SK-MEL-5 melanoma and in the test with MDA-MB-231 breast was more than 100 µM in each case.

As for `N#CC1N(C(=O)c2ccc(F)cc2)c2ccccc2N1C(=O)c1ccc(F)cc1`, the TGI is more than 100 µM in the test with 786-0 renal; more than 100 µM with DU-145 prostate; more than 100 µM in the test on PC-3 prostate; 82.8 µM with MOLT-4 leukemia; 68.8 µM in the test with HOP-92 NSCLC; more than 100 µM in the test with KM12 colon. The TGI was 45.6 µM in the test on COLO 205 colon, 63.2 µM in the test with SK-MEL-5 melanoma and more than 100 µM in the test with MDA-MB-231 breast.

With `O=C(c1ccc(Cl)cc1)N(Cc1cccnc1)C(=S)N(Cc1cccnc1)C(=O)c1ccc(Cl)cc1`, the TGI in the test on 786-0 renal is 48.2 µM; in the test on DU-145 prostate it was more than 100 µM; in the test with PC-3 prostate, 90.3 µM; with MOLT-4 leukemia it was more than 100 µM; in the test with HOP-92 NSCLC it was more than 100 µM; with KM12 colon, more than 100 µM. In addition, the TGI stood at 43.4 µM in the test on COLO 205 colon, 90.1 µM in the test on SK-MEL-5 melanoma and 59.3 µM with MDA-MB-231 breast.

In the case of `CC(C)OC(=O)c1ccc(CCC2=CC(=O)C(Br)=CC2=O)cc1`, the TGI was determined as 30.2 µM with 786-0 renal; 63.3 µM in the test on DU-145 prostate; 31.8 µM in the test on PC-3 prostate; 14 µM in the test with MOLT-4 leukemia; 24.9 µM in the test on HOP-92 NSCLC; 26.5 µM in the test on KM12 colon. Moreover, the results for the TGI in the test on COLO 205 colon, in the test with SK-MEL-5 melanoma and in the test on MDA-MB-231 breast were 24.7 µM, 25.7 µM and 31.1 µM, respectively.

Regarding `O=C1c2ccccc2C(=O)N1C(=S)c1ccccc1`, the TGI in the test with 786-0 renal, with DU-145 prostate, in the test with PC-3 prostate, in the test on MOLT-4 leukemia, with HOP-92 NSCLC and with KM12 colon was more than 100 µM throughout. Besides, the TGI with COLO 205 colon, with SK-MEL-5 melanoma and in the test with MDA-MB-231 breast was more than 100 µM throughout.

Regarding `O=C(c1ccc(Cl)cc1)N(C(=S)N1CCN(c2ccccn2)CC1)c1ccccc1`, the TGI in the test on 786-0 renal, in the test with MOLT-4 leukemia, in the test on HOP-92 NSCLC, in the test with KM12 colon, in the test with DMS 114 small cell lung and in the test with DMS 273 small cell lung was more than 100 µM in each case. Further, the TGI with COLO 205 colon, with SK-MEL-5 melanoma and in the test with DLD-1 colon was more than 100 µM each time.

On to `N=C1N=C(N)c2cc3c(cc21)SCCSCCCSCCS3`, for which the TGI in the test on 786-0 renal is 32.6 µM; in the test with DU-145 prostate, 88.4 µM; with PC-3 prostate, 34.7 µM; in the test with MOLT-4 leukemia, 32.5 µM; in the test with HOP-92 NSCLC, more than 54.7 µM; in the test on KM12 colon, 26.7 µM. Moreover, the TGI stood at 16.9 µM with COLO 205 colon, 31.7 µM in the test on SK-MEL-5 melanoma and 39.6 µM in the test on MDA-MB-231 breast.

In the case of `CC(O)(c1ccccc1)c1nccc2ccccc12` (stereo not drawn), the TGI with 786-0 renal was more than 100 µM; in the test with DU-145 prostate it was more than 100 µM; in the test on PC-3 prostate, more than 100 µM; in the test on MOLT-4 leukemia, more than 100 µM; with HOP-92 NSCLC, 95.2 µM; in the test with KM12 colon, more than 100 µM. Also, the TGI in the test on COLO 205 colon, with SK-MEL-5 melanoma and in the test on MDA-MB-231 breast was more than 100 µM throughout.

For the compound `COC(=O)C1(NC(=O)C(N)CC(=O)O)C(C)C1C` (stereo not drawn), the TGI in the test on 786-0 renal, in the test with DU-145 prostate, with PC-3 prostate, in the test on MOLT-4 leukemia, in the test on HOP-92 NSCLC and in the test on KM12 colon was more than 100 µM each time. Also, the TGI in the test on COLO 205 colon, in the test on SK-MEL-5 melanoma and in the test with MDA-MB-231 breast was more than 100 µM each time.

In the case of `COc1ccc2[nH]c(C(=O)N3CC(CCl)c4ccc([N+](=O)[O-])cc43)cc2c1` (stereo not drawn), the TGI with 786-0 renal, with DU-145 prostate, in the test on PC-3 prostate, in the test on MOLT-4 leukemia, in the test on HOP-92 NSCLC and in the test with KM12 colon was more than 100 µM in each case. The TGI in the test with COLO 205 colon, with SK-MEL-5 melanoma and in the test with MDA-MB-231 breast was more than 100 µM each time.

In the case of `Oc1[nH]c2ccccc2c1N=NC(=S)N1CCCCCC1`, the TGI is 2.63 µM with 786-0 renal; 10.5 µM in the test on DU-145 prostate; 10.6 µM in the test with PC-3 prostate; 3.1 µM with MOLT-4 leukemia; 6.55 µM in the test on HOP-92 NSCLC; 2.22 µM in the test on KM12 colon. Besides, the TGI in the test on COLO 205 colon was found to be 6.2 µM; with SK-MEL-5 melanoma it was 2.04 µM; in the test with MDA-MB-231 breast, 3.35 µM.

As to `CC(=O)OCC1OC(OCC2OC(N3C(=S)N[C@H]([C@@H](O)[C@H](O)[C@H](O)CO)[C@H]3O)C(OC(C)=O)C(OC(C)=O)C2OC(C)=O)C(OC(C)=O)C(OC(C)=O)C1OC(C)=O` (stereo partly drawn), the TGI in the test with 786-0 renal, in the test on DU-145 prostate, in the test with PC-3 prostate, with MOLT-4 leukemia, in the test on HOP-92 NSCLC and with KM12 colon was more than 100 µM in each case. Besides, the TGI in the test with COLO 205 colon, with SK-MEL-5 melanoma and in the test with MDA-MB-231 breast was more than 100 µM throughout.

As for `CC[C@@]1(O)C(=O)OCc2c1cc1n(c2=O)Cc2c-1nc1ccccc1c2/C=N\NC(=O)C(N)CS` (stereo partly drawn), the TGI in the test on 786-0 renal was more than 100 µM; in the test on DU-145 prostate it was 6.76 µM; with PC-3 prostate, more than 100 µM; with MOLT-4 leukemia, 2.07 µM; in the test with HOP-92 NSCLC it was more than 57.1 µM; with KM12 colon it was more than 100 µM. Besides, the TGI in the test on COLO 205 colon was more than 100 µM; in the test on SK-MEL-5 melanoma, 3.9 µM; with MDA-MB-231 breast, more than 100 µM.
